Source: patent EP4818157A1, “N-SUBSTITUTED CYCLIC AMIDE COMPOUND” (Kissei Pharmaceutical Co., Ltd., priority 2023, dated 2025)

What follows are compounds tested against T1, human TSHR (Homo sapiens, UniProt P16473) (assay: Measurement of antagonist activity using TSH-induced cAMP production in human TSHR-stably expressing CHO cells). Conditions: human TSH final concentration 50 ng/mL.
T1 construct: expressed in transfected cells
Format: cell-based
Experimental: Measurement of Antagonist Activity Using TSH-induced cAMP Production in Human TSHR-stably Expressing CHO Cells as an Indicator
A gene sequence of human TSHR (reference number NM_000369.2) was inserted into a multiple cloning site of pcDNA3.1(+). The prepared plasmid vector was introduced into CHO cells by a lipofection method to establish human TSHR stably expressing CHO cells. The obtained cells were seeded in a poly-D-lysine-coated 96-well plate at 5 x 10^4 cells/well, and cultured for 1 day in F12 medium containing 10% FBS, 400 µg/mL G418, 50 U/mL penicillin, and 50 µg/mL streptomycin under conditions of 37°C and 5% CO2. After removing a medium, the cells were washed twice with 100 µL per well of an assay buffer (Hanks' Balanced Salt Solution containing 20 mM HEPES and 1 mM IBMX). 30 µL of an assay buffer containing a test compound was added to a well, and the mixture was incubated at room temperature for 15 minutes. Next, 30 µL of an assay buffer containing human TSH (R&D Systems, Inc., final concentration 50 ng/mL) was added, and the mixture was incubated at 37°C for 1 hour. The supernatant was removed, and Lysis and Detection Buffer 2 (Cisbio) was added to prepare a cell lysate by incubating at room temperature for 1 hour. According to the instructions for use of a cAMP Gs HiRange kit (Cisbio), a cell lysate was reacted with d2-labeled cAMP and an anti-cAMP Europium Cryptate labeled antibody (Cisbio) in a 384-well white microplate. Next, a fluorescence intensity ratio (measurement wavelengths 665 nm/620 nm) was measured using a multiplate reader (PHERAstar FSX, BMG LABTECH Japan). A fluorescence intensity ratio of each sample was converted into a cAMP content using a standard curve. A cAMP content was converted into a percentage of a control value, and a cAMP production rate was calculated. Using Prism (Graph Pad Software Inc.), a cAMP production rate was plotted against a test compound concentration, and an IC50 value was calculated. The IC50 of each test compound is shown in the above tables. In the tables, IC50 < 3.0 µM was denoted as A, and 3.0 µM ≤ IC50 < 30 µM was denoted as B. The case where activity was observed but an IC50 value could not be calculated was denoted as C.

T1 sequence (P16473 21-764): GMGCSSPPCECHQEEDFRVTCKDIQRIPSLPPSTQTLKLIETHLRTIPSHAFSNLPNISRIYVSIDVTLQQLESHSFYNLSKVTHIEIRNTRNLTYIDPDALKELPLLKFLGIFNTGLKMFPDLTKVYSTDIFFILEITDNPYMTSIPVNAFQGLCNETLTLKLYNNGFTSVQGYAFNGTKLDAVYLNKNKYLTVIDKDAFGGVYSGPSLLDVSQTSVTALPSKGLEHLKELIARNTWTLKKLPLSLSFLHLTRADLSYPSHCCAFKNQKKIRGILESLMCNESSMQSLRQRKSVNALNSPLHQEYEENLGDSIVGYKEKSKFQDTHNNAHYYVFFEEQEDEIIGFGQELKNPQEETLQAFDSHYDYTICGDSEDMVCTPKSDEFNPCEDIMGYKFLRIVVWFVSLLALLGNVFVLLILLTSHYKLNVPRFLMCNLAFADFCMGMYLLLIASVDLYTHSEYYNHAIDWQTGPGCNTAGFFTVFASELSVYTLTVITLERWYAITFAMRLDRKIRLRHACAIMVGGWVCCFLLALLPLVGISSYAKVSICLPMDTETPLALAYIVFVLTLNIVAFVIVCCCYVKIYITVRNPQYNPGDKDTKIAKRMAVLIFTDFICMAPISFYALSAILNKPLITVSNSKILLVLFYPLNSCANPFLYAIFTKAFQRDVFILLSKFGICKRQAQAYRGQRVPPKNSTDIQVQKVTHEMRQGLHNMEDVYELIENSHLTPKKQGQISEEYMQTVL

IC50 [µM] | SMILES
< 3 | NC(=O)N[C@@H]1Cc2cscc2N(Cc2cccc(C(F)(F)F)c2)C1=O [Example C-22, (R)-1-(2-oxo-1-(3-(trifluoromethyl)benzyl)-1,2,3,4-tetrahydrothieno[3,4-b]pyridin-3-yl)urea]
3 to 30 | NC(=O)N[C@@H]1Cc2ccncc2N(Cc2cccc(C(F)(F)F)c2)C1=O [Example C-23, (R)-1-(2-oxo-1-(3-(trifluoromethyl)benzyl)-1,2,3,4-tetrahydro-1,7-naphthyridin-3-yl)urea]
3 to 30 | CC(c1cc(C(F)(F)F)ccc1F)N1C(=O)[C@H](NC(N)=O)Cc2ccc(F)cc21 (stereo partly drawn) [Example C-24, 1-((3R)-7-fluoro-1-(1-(2-fluoro-5-(trifluoromethyl)phenyl)ethyl)-2-oxo-1,2,3,4-tetrahydroquinolin-3-yl)urea]
3 to 30 | NC(=O)N[C@@H]1Cc2ccccc2N(CCc2ccccc2)C1=O [Example C-25, (R)-1-(2-oxo-1-phenethyl-1,2,3,4-tetrahydroquinolin-3-yl)urea]
> 30 | NC(=O)N[C@@H]1Cc2ccccc2N(CCCc2ccccc2)C1=O [Example C-26, (R)-1-(2-oxo-1-(3-phenylpropyl)-1,2,3,4-tetrahydroquinolin-3-yl)urea]
> 30 | NC(=O)N[C@@H]1Cc2ccccc2N(CC2CCCCC2)C1=O [Example C-27, (R)-1-(1-(cyclohexylmethyl)-2-oxo-1,2,3,4-tetrahydroquinolin-3-yl)urea]
< 3 | CNC(=O)N[C@@H]1Cc2ccc(C(F)(F)F)cc2N(Cc2cc(C(F)F)ccc2F)C1=O [Example C-28, (R)-1-(1-(5-(difluoromethyl)-2-fluorobenzyl)-2-oxo-7-(trifluoromethyl)-1,2,3,4-tetrahydroquinolin-3-yl)-3-methylurea]
> 30 | NC(=O)N[C@@H]1Cc2ccc(C(=O)O)cc2N(Cc2cc(C(F)(F)F)ccc2F)C1=O [Example C-29, (R)-1-(2-fluoro-5-(trifluoromethyl)benzyl)-2-oxo-3-ureido-1,2,3,4-tetrahydroquinolin-7-carboxylic acid]
3 to 30 | NC(=O)N[C@@H]1Cc2ccc(C(N)=O)cc2N(Cc2cc(C(F)(F)F)ccc2F)C1=O [Example C-30, (R)-1-(2-fluoro-5-(trifluoromethyl)benzyl)-2-oxo-3-ureido-1,2,3,4-tetrahydroquinolin-7-carboxamide]
< 3 | C=CCc1ccc(F)c(CN2C(=O)[C@H](NC(N)=O)CC[C@H]2C(F)(F)F)c1 [Example D-1, 1-((3R,6S)-1-(5-allyl-2-fluorobenzyl)-2-oxo-6-(trifluoromethyl)piperidin-3-yl)urea]
< 3 | NC(=O)N[C@@H]1CC[C@@H](C(F)(F)F)N(Cc2cc(CCC3CC3)ccc2F)C1=O [Example D-2, 1-((3R,6S)-1-(5-(2-cyclopropylethyl)-2-fluorobenzyl)-2-oxo-6-(trifluoromethyl)piperidin-3-yl)urea]
3 to 30 | NC(=O)N[C@@H]1CC[C@@H]2CC[C@@H](Cc3ccccc3C(F)(F)F)N2C1=O [Example D-3, 1-((3S,6R,8aR)-5-oxo-3-(2-(trifluoromethyl)benzyl)octahydroindolizin-6-yl)urea]
3 to 30 | NC(=O)N[C@@H]1CC[C@@H](CO)N(Cc2cc(C(F)(F)F)ccc2F)C1=O [Example D-4, 1-((3R,6S)-1-(2-fluoro-5-(trifluoromethyl)benzyl)-6-(hydroxymethyl)-2-oxopiperidin-3-yl)urea]
> 30 | NC(=O)N[C@@H]1CC[C@@H](CN2CCCC2)N(Cc2cc(C(F)(F)F)ccc2F)C1=O [Example D-5, 1-((3R,6S)-1-(2-fluoro-5-(trifluoromethyl)benzyl)-2-oxo-6-(pyrrolidin-1-ylmethyl)piperidin-3-yl)urea]
< 3 | COC[C@@H]1CC[C@@H](NC(N)=O)C(=O)N1Cc1cc(C(F)(F)F)ccc1F [Example D-6, 1-((3R,6S)-1-(2-fluoro-5-(trifluoromethyl)benzyl)-6-(methoxymethyl)-2-oxopiperidin-3-yl)urea]
< 3 | CCOC[C@@H]1CC[C@@H](NC(N)=O)C(=O)N1Cc1cc(C(F)(F)F)ccc1F [Example D-7, 1-((3R,6S)-6-(ethoxymethyl)-1-(2-fluoro-5-(trifluoromethyl)benzyl)-2-oxopiperidin-3-yl)urea]

IC50 [µM] | SMILES
> 30 | CC(=O)NC[C@@H]1CC[C@@H](NC(N)=O)C(=O)N1Cc1cc(C(F)(F)F)ccc1F [Example D-8, N-(((2S,5R)-1-(2-fluoro-5-(trifluoromethyl)benzyl)-6-oxo-5-ureidopiperidin-2-yl)methyl)acetamide]
> 30 | CN(C)C[C@@H]1CC[C@@H](NC(N)=O)C(=O)N1Cc1cc(C(F)(F)F)ccc1F [Example D-9, 1-((3R,6S)-6-((dimethylamino)methyl)-1-(2-fluoro-5-(trifluoromethyl)benzyl)-2-oxopiperidin-3-yl)urea]
< 3 | NC(=O)Nc1ccc(CO)n(Cc2cc(C(F)(F)F)cc(Cl)c2F)c1=O [Example E-1, 1-(1-(3-chloro-2-fluoro-5-(trifluoromethyl)benzyl)-6-(hydroxymethyl)-2-oxo-1,2-dihydropyridin-3-yl)urea]
< 3 | COCc1ccc(NC(N)=O)c(=O)n1Cc1cc(C(F)(F)F)cc(Cl)c1F [Example E-2, 1-(1-(3-chloro-2-fluoro-5-(trifluoromethyl)benzyl)-6-(methoxymethyl)-2-oxo-1,2-dihydropyridin-3-yl)urea]
< 3 | CN(C)Cc1ccc(NC(N)=O)c(=O)n1Cc1cc(C(F)(F)F)cc(Cl)c1F [Example E-3, 1-(1-(3-chloro-2-fluoro-5-(trifluoromethyl)benzyl)-6-((dimethylamino)methyl)-2-oxo-1,2-dihydropyridin-3-yl)urea]
< 3 | NC(=O)Nc1ccc(CN2CCCC2)n(Cc2cc(C(F)(F)F)cc(Cl)c2F)c1=O [Example E-4, 1-(1-(3-chloro-2-fluoro-5-(trifluoromethyl)benzyl)-2-oxo-6-(pyrrolidin-1-ylmethyl)-1,2-dihydropyridin-3-yl)urea]
< 3 | C=CCc1ccc(NC(N)=O)c(=O)n1Cc1cc(C(F)(F)F)cc(Cl)c1F [Example E-5, 1-(6-allyl-1-(3-chloro-2-fluoro-5-(trifluoromethyl)benzyl)-2-oxo-1,2-dihydropyridin-3-yl)urea]
< 3 | NC(=O)Nc1ccc(CN2CCCC2)n(Cc2cc(C(F)(F)F)ccc2F)c1=O [Example E-6, 1-(1-(2-fluoro-5-(trifluoromethyl)benzyl)-2-oxo-6-(pyrrolidin-1-ylmethyl)-1,2-dihydropyridin-3-yl)urea]
3 to 30 | NC(=O)Nc1ccc2n(c1=O)CC(c1cccc(C(F)(F)F)c1)C2 (stereo not shown) [Example E-7, 1-(5-oxo-2-(3-(trifluoromethyl)phenyl)-1,2,3,5-tetrahydroindolizin-6-yl)urea]
3 to 30 | Cc1ccc(NC(=O)C(F)(F)F)c(=O)n1Cc1cc(C(F)(F)F)cc(Cl)c1F [Example E-8, N-(1-(3-chloro-2-fluoro-5-(trifluoromethyl)benzyl)-6-methyl-2-oxo-1,2-dihydropyridin-3-yl)-2,2,2-trifluoroacetamide]
< 3 | Cc1ccc(NC(=O)N2CCC2)c(=O)n1Cc1cc(C(F)(F)F)cc(Cl)c1F [Example E-9, N-(1-(3-chloro-2-fluoro-5-(trifluoromethyl)benzyl)-6-methyl-2-oxo-1,2-dihydropyridin-3-yl)azetidine-1-carboxamide]
3 to 30 | NC(=O)N[C@@H]1Cc2ccc(C(F)F)cc2N(Cc2cc(C(F)(F)F)ccc2CO)C1=O [Example F-1, (R)-1-(7-(difluoromethyl)-1-(2-(hydroxymethyl)-5-(trifluoromethyl)benzyl)-2-oxo-1,2,3,4-tetrahydroquinolin-3-yl)urea]
< 3 | NC(=O)N[C@@H]1Cc2ccc(C(F)F)cc2N(Cc2cccc(C(F)(F)F)n2)C1=O [Example F-2, (R)-1-(7-(difluoromethyl)-2-oxo-1-((6-(trifluoromethyl)pyridin-2-yl)methyl)-1,2,3,4-tetrahydroquinolin-3-yl)urea]
3 to 30 | CN(C)Cc1cccc2c1N(Cc1cc(C(F)(F)F)ccc1F)C(=O)[C@H](NC(N)=O)C2 [Example F-3, (R)-1-(8-((dimethylamino)methyl)-1-(2-fluoro-5-(trifluoromethyl)benzyl)-2-oxo-1,2,3,4-tetrahydroquinolin-3-yl)urea]
< 3 | NC(=O)N[C@@H]1Cc2ccsc2N(Cc2cc(C(F)(F)F)ccc2F)C1=O [Example F-4, (R)-1-(7-(2-fluoro-5-(trifluoromethyl)benzyl)-6-oxo-4,5,6,7-tetrahydrothieno[2,3-b]pyridin-5-yl)urea]
